Test system: M. Smegmatis ATCC607
Assay: In-vitro anti-bacterial activity against strain M. smegmatis ATCC607 (Alamar Blue growth inhibition)
Type: cell-based
Conditions: 48 hours incubation
Description: Serial five-fold dilutions (45 μl in 180 μl) were made directly in the microtiter plates from column 2 to 11 using a customised robot system (Zymark Corp., Hopkinton, Mass.). Pipette tips were changed after every 3 dilutions to minimize pipetting errors with high hydrophobic compounds. Untreated control samples with (column 1) and without (column 12) inoculum were included in each microtiter plate. Approximately 250 CFU per well of bacteria inoculum, in a volume of 100 μl in 2.8× Mueller-Hinton broth medium, was added to the rows […]. The same volume of broth medium without inoculum was added to column 12 in row A to H. The cultures were incubated at 37° C. for 48 hours in a humidified 5% CO2 atmosphere (incubator with open air valve and continuous ventilation). At the end of incubation, two days after inoculation, the bacterial growth was quantitated fluorometrically. Therefore Alamar Blue (10×) was added to all wells in a volume of 20 μl and plates were incubated for another 2 hours at […] The fluorescence was read in a computer-controlled fluorometer (Cytofluor, Biosearch) at an excitation wavelength of 530 nm and an emission wavelength of 590 nm (gain 30). The percentage growth inhibition achieved by the compounds was calculated according to standard methods and expressed as pIC50 values.

In order of rising “M. smegmatis pIC50” value:
1. COc1nc2ccc(Br)cc2cc1C(c1ccccc1)N(C)CC(=O)N1CCN(Cc2ccccc2)CC1 (stereo not drawn) [Compound 91]  4.1
2. COc1nc2ccc(Br)cc2cc1C(c1ccccc1)N(C)CC(=O)N1CCCCC1 (stereo not drawn) [Compound 82]  4.4
3. CNC(=O)CN(C)C(c1ccccc1)c1cc2cc(C)ccc2nc1-c1ccccc1 (stereo not drawn) [Compound 38]  4.5
4. Cc1ccc2nc(-c3ccccc3)c(C(c3ccccc3)N(C)CC(=O)N(C)C)cc2c1 (stereo not drawn) [Compound 39]  4.5
5. COc1nc2ccc(Br)cc2cc1C(c1ccccc1)N(CC(=O)N1CCSCC1)Cc1ccc2ccccc2n1 (stereo not drawn) [Compound 113]  4.5
6. COCCN(CCOC)C(=O)CN(C)C(c1ccccc1)c1cc2cc(Br)ccc2nc1OC (stereo not drawn) [Compound 13]  4.6
7. COc1nc2ccc(Br)cc2cc1C(c1ccccc1)N(C)CC(=O)N(C)c1ccccc1C (stereo not drawn) [Compound 10]  4.7
8. COc1nc2ccc(Br)cc2c(Cl)c1C(c1ccccc1)N(C)CC(=O)N(C)C (stereo not drawn) [Compound 15]  4.8
9. COc1nc2ccc(Br)cc2cc1C(c1ccccc1)N(C)CC(=O)N(C)CC#N (stereo not drawn) [Compound 7]  4.9
10. COc1nc2ccc(Br)cc2cc1C(c1ccccc1)N(C)CC(=O)N1CCOCC1 (stereo not drawn) [Compound 86]  4.9
11. COc1nc2ccc(Br)cc2cc1C(c1ccccc1)N(C)CC(=O)N1Cc2ccccc2C1 (stereo not drawn) [Compound 95]  4.9
12. COc1nc2ccc(Br)cc2cc1C(c1ccccc1)N(CC(=O)N1CCOCC1)Cc1ccco1 (stereo not drawn) [Compound 101]  4.9
13. COc1nc2ccc(Br)cc2cc1C(c1ccccc1)N(C)CC(=O)N(C)CCCN(C)C (stereo not drawn) [Compound 9]  5
14. COc1nc2ccc(Br)cc2cc1C(c1ccccc1)N(C)CC(=O)N1CCSC1 (stereo not drawn) [Compound 81]  5
15. COc1nc2ccc(Br)cc2cc1C(c1ccccc1)N(C)CC(=O)N1CCN(C)CC1 (stereo not drawn) [Compound 89]  5
16. COc1nc2ccc(Br)cc2cc1C(c1ccccc1)N(C)CCN(C)C (stereo not drawn) [Compound 1]  5.1
17. COc1nc2ccc(Br)cc2cc1C(c1ccccc1)N(C)CC(=O)N(C)C (stereo not drawn) [Compound 4]  5.1
18. COc1nc2ccc(Br)cc2cc1C(c1ccccc1)N(C)CC(=O)N(C)C(C)C (stereo not drawn) [Compound 5]  5.1
19. CCCCN(C)C(=O)CN(C)C(c1ccccc1)c1cc2cc(Br)ccc2nc1OC (stereo not drawn) [Compound 6]  5.1
20. COc1nc2ccc(Br)cc2cc1C(c1ccccc1)N(C)CC(=O)N(C)CCN(C)C (stereo not drawn) [Compound 8]  5.1
21. CCN(Cc1ccncc1)C(=O)CN(C)C(c1ccccc1)c1cc2cc(Br)ccc2nc1OC (stereo not drawn) [Compound 12]  5.1
22. COc1nc2ccc(Br)cc2cc1C(c1ccccc1)N(CC(=O)N(C)C)Cc1ccccc1 (stereo not drawn) [Compound 24]  5.1
23. COc1nc2ccc(Br)cc2cc1C(c1ccccc1)N(CCCN(C)C)CCCN(C)C (stereo not drawn) [Compound 28]  5.1
24. Cc1ccc2nc(-c3ccccc3)c(C(c3ccccc3)N(CC(=O)NN3CCOCC3)Cc3ccccc3)cc2c1 (stereo not drawn) [Compound 44]  5.1
25. Cc1ccc2nc(-c3ccccc3)c(C(c3ccccc3)N(C)CC(=O)N3CCN(C)CC3)cc2c1 (stereo not drawn) [Compound 62]  5.1
26. Cc1ccc2nc(-c3ccccc3)c(C(c3ccccc3)N(C)CC(=O)N3CCOCC3)cc2c1 (stereo not drawn) [Compound 63]  5.1
27. COc1nc2ccc(Br)cc2cc1C(c1ccccc1)N(C)CC(=O)N1CCCC1 (stereo not drawn) [Compound 80]  5.1
28. COc1nc2ccc(Br)cc2cc1C(c1ccccc1)N(C)CC(=O)N1CCCN(C)CC1 (stereo not drawn) [Compound 84]  5.1
29. COc1nc2ccc(Br)cc2cc1C(c1ccccc1)N(C)CC(=O)N1CC=CCC1 (stereo not drawn) [Compound 85]  5.1
30. COc1nc2ccc(Br)cc2cc1C(c1ccccc1)N(C)CC(=O)N1CC(C)OC(C)C1 (stereo not drawn) [Compound 87]  5.1
31. COc1nc2ccc(Br)cc2cc1C(c1ccccc1)N(C)CC(=O)N1CCN(c2ccccn2)CC1 (stereo not drawn) [Compound 92]  5.1
32. COc1nc2ccc(Br)cc2cc1C(c1ccccc1)N(C)CC(=O)N(CCC#N)Cc1cccnc1 (stereo not drawn) [Compound 14]  5.2
33. Cc1ccc2nc(-c3ccccc3)c(C(c3ccccc3)N(CC(=O)NC3CCCCC3)Cc3ccccc3)cc2c1 (stereo not drawn) [Compound 43]  5.2
34. COc1nc2ccc(Br)cc2c(Cl)c1C(c1ccccc1)N(C)CC(=O)N1CCOCC1 (stereo not drawn) [Compound 96]  5.2
35. COc1nc2ccc(Br)cc2cc1C(c1ccccc1)N(CC(=O)N1CCOCC1)Cc1ccccn1 (stereo not drawn) [Compound 110]  5.2
36. COc1nc2ccc(C)cc2cc1C(c1ccccc1)N(CCC(=O)N1CCOCC1)Cc1ccccc1 (stereo not drawn) [Compound 60]  5.3
37. COc1nc2ccc(Br)cc2cc1C(c1ccccc1)N(CC(=O)N1CCOCC1)C(C)C (stereo not drawn) [Compound 98]  5.3
38. COc1nc2ccc(Br)cc2cc1C(c1ccccc1)N(CC(=O)N(C)C)Cc1cccc2ncccc12 (stereo not drawn) [Compound 25]  5.4
39. COc1nc2ccc(Br)cc2cc1C(c1ccccc1)N(C)CCCN(C)C (stereo not drawn) [Compound 27]  5.5
40. CN(C)C(=O)CN(Cc1ccccc1)C(c1cc2ccccc2o1)c1cc2ccccc2nc1-c1ccccc1 (stereo not drawn) [Compound 35]  5.6
41. CNC(=O)CN(Cc1ccccc1)C(c1ccccc1)c1cc2cc(C)ccc2nc1-c1ccccc1 (stereo not drawn) [Compound 40]  5.6
42. COc1nc2ccc(Br)cc2cc1C(c1ccccc1)N(CC(=O)N(C)C)Cc1ccnc2ccccc12 (stereo not drawn) [Compound 26]  5.7
43. CN(C)C(=O)CN(Cc1ccccc1)C(c1ccccc1)c1cc2ccccc2nc1-c1ccccc1 (stereo not drawn) [Compound 32]  5.7
44. Cc1ccc2nc(-c3ccccc3)c(C(c3ccccc3)N(CC(=O)NCC3CC3)Cc3ccccc3)cc2c1 (stereo not drawn) [Compound 42]  5.8
45. COCCN(CCOC)C(=O)CN(Cc1ccccc1)C(c1ccccc1)c1cc2cc(C)ccc2nc1-c1ccccc1 (stereo not drawn) [Compound 50]  5.8
46. O=C(CN(Cc1ccccc1)C(c1cccnc1)c1cc2ccccc2nc1-c1ccccc1)N1CCSCC1 (stereo not drawn) [Compound 56]  5.8
47. O=C(CN(Cc1ccccc1)C(c1cc2ccccc2o1)c1cc2ccccc2nc1-c1ccccc1)N1CCCC1 (stereo not drawn) [Compound 57]  5.9
48. O=C(CN(Cc1ccccc1)C(c1cc2ccccc2o1)c1cc2ccccc2nc1-c1ccccc1)N1CCSCC1 (stereo not drawn) [Compound 58]  6.1
49. CC(C)N(C)C(=O)CN(Cc1ccccc1)C(c1ccccc1)c1cc2ccccc2nc1-c1ccccc1 (stereo not drawn) [Compound 33]  6.5

Same assay, conditions: Mycolicibacterium smegmatis, 48 hours incubation, read-out: M. smegmatis pIC50 (converted)

In order of falling IC50:
1. Cc1ccc2nc(-c3ccccc3)c(C(c3ccccc3)N(C)CCN(C)C)cc2c1 (stereo not drawn) [Compound 37]  20000 nM
2. COc1nc2ccc(Br)cc2cc1C(c1ccccc1)N(C)CC(=O)N1CCC(C)CC1 (stereo not drawn) [Compound 83]  2510 nM
3. CCN(CC)CCN(C)C(c1ccccc1)c1cc2cc(Br)ccc2nc1OC (stereo not drawn) [Compound 2]  2000 nM
4. CC(C)N(C)C(=O)CN(Cc1ccccc1)C(c1ccccc1)c1cc2cc(Br)ccc2nc1Oc1ccccc1 (stereo not drawn) [Compound 30]  631 nM
5. CC(C)N(C)C(=O)CN(Cc1ccccc1)C(c1cc2ccccc2o1)c1cc2ccccc2nc1-c1ccccc1 (stereo not drawn) [Compound 36]  316 nM
